Experimental data reported in patent US20170291890A1 (Epizyme, Inc., priority 2014, published 2017).

Experiments:
KDM4A = target: T1, KDM4A (Homo sapiens, UniProt O75164); assay: KDM4A Assay (SAMDI mass spectrometry demethylase assay); type: biochemical; settings: N-terminal His-tagged KDM4A 1-350; class symbols; read-out: 4A IC50
T1 construct: N-terminal His-tagged KDM4A^1-350 was purchased from BPS Biosciences; His (N); purchased BPS Biosciences
T1 sequence (O75164 1-350): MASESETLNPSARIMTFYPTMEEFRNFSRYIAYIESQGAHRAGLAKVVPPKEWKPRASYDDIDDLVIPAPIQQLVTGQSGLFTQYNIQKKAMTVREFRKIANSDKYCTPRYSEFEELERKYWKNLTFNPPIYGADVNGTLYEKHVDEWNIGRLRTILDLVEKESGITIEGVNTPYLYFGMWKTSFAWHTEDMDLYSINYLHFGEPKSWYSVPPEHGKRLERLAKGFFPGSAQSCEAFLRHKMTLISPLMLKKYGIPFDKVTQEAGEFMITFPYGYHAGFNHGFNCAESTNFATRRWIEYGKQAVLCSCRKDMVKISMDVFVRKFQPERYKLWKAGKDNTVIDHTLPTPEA
Method: (§1) N-terminal His-tagged KDM4A^1-350 was purchased from BPS Biosciences. Peptides were synthesized by BioPeptide and all other reagents were purchased from Sigma-Aldrich at the highest level of purity possible. Assays were performed in a 50 μL volume in 384-well V-bottom polypropylene microplates (Greiner) at 25° C. Optimized 1× assay buffer was 50 mM HEPES (pH=8.0), 100 μM sodium ascorbate, 20 mM NaCl, 10 μM ammonium iron sulfate, 1 mM tris(2-carboxyethyl)phosphine (TCEP), 0.002% Tween-20, and 0.005% BSG. For compound screening, 35 μL of KDM4A^1-350 (final concentration, f.c.=5 nM) was added using a Multidrop Combi and preincubated with 1 μL of test compound (f.c.=10 μM) for 30 minutes and subsequently 15 μL of peptide with the following sequence NH2-ARTKQTAR(Kme2)STGGKAPRKQLA(K-Ahx-Biotin)-amide (f.c.=600 nM) and 2-oxoglutarate (f.c.=5 μM) was added by Multidrop Combi to begin the reaction. Reactions proceeded for 120 minutes and were stopped by the addition of 5 μL of formic acid (f.c.=0.5%) using a Multidrop Combi and then analyzed by SAMDI Tech Inc.
(§2) SAMDI Tech analyzed all reactions using self-assembled monoloayer desorption/ionization technology as previously described (Gerard-Levin Z A, Scholle M D, Eisenberg A H, et al.: High-throughput screening of small molecule libraries using SAMDI mass spectrometry. ACS Comb Sci 2011; 13:347-350). Briefly, a 2 μL sample of the stopped demethylase reactions were transferred to a SAMDI array coated with 384 biotin-neutravidin spots using a 384-channel pipet station. The SAMDI arrays were incubated for 1 h in a humidified chamber, followed by washing of the surface with deionized ultra-filtered water (DIUF) and drying under nitrogen. A matrix of 30 mg/ml 2′,4′,6′-Trihydroxyacetophenone monohydrate (THAP) in acetone was applied using a TPP Mosquito 1.2 μL tip by dispensing 50 nL on each of the 384 spots on the array. SAMDI-MS was run using acquisition method ReflectorPositiveUTX. The % conversion of substrate to product was calculated using the AUC of the substrate and product peptide peaks.
(§3) An IC50 value was determined by contacting various concentrations of a test compound with one of the KDM4A, KDM4C or KDMSC enzyme constructs and plotting a dose-response curve which associates the amount of inhibition of the enzyme relative to the concentration of the test compound. From the curve, the IC50 value (which represents the concentration of the test compound necessary to inhibit maximal enzymatic activity by 50%) was determined. Additionally, the slope of the linear range of the plotted curve, which indicates the speed with which the curve rises between the minimum and maximum, was calculated.

KDM4C = target: T2, KDM4C (Homo sapiens, UniProt Q9H3R0); assay: KDM4C Assay (SAMDI mass spectrometry demethylase assay); type: biochemical; settings: N-terminal GST-tagged KDM4C 2-372; class symbols; read-out: 4C IC50
T2 construct: N-terminal GST-tagged KDM4C^2-372 was purchased from BPS Biosciences; GST (N); purchased BPS Biosciences
T2 sequence (Q9H3R0 2-372): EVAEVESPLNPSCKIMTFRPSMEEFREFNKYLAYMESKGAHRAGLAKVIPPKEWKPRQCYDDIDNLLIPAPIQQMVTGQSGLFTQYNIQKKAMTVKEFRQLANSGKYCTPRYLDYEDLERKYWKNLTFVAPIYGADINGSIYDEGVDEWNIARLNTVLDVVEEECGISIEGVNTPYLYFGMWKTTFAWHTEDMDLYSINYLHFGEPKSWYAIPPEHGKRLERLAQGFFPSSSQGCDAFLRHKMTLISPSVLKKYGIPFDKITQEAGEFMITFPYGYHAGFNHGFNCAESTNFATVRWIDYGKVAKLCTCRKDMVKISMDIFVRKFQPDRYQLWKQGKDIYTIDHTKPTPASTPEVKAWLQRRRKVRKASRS
Method: as §1, with “GST-tagged KDM4C^2-372” for “His-tagged KDM4A^1-350”, “KDM4C^2-372” for “KDM4A^1-350”, “NH2-ARTKQTAR(Kme3)STGGKAPRKQLA(K-Ahx-Biotin)-amide (f.c.=500” for “NH2-ARTKQTAR(Kme2)STGGKAPRKQLA(K-Ahx-Biotin)-amide (f.c.=600”, “(f.c.=15” for “(f.c.=5”, “150” for “120”
as §2, §3

SMILES	IC50 (KDM4A)	IC50 (KDM4C)
Cc1c(Nc2cnccc2C(=O)O)nn(CCN2CCC(F)(F)CC2)c1-c1ccccc1 [Compound 67, 3-((1-(2-(4,4-difluoropiperidin-1-yl)ethyl)-4-methyl-5-phenyl-1H-pyrazol-3-yl)amino)isonicotinic acid]	1 to 100 nM	100 to 1000 nM
CN1CCN(CCn2cc(-c3ccccc3)c(Nc3cnccc3C(=O)O)n2)CC1 [Compound 34, 3-((1-(2-(4-Methylpiperazin-1-yl)ethyl)-4-phenyl-1H-pyrazol-3-yl)amino)isonicotinic acid]	1000 to 10000 nM	10000 to 100000 nM
Cc1nn(CCN(C)C)cc1Nc1cnccc1C(=O)O [Compound 107, 3-(1-(2-(dimethylamino)ethyl)-3-methyl-1H-pyrazol-4-ylamino) isonicotinic acid]	100 to 1000 nM	1000 to 10000 nM
O=C(O)c1ccncc1Nc1nn(C2CCOCC2)cc1-c1ccccc1 [Compound 72, 3-((4-phenyl-1-(tetrahydro-2H-pyran-4-yl)-1H-pyrazol-3-yl)amino)isonicotinic acid]	1000 to 10000 nM	1000 to 10000 nM
CNC(=O)c1cccc(-n2ncc(Nc3cnccc3C(=O)O)c2C)c1 [Compound 59, 3-((5-methyl-1-(3-(methylcarbamoyl)phenyl)-1H-pyrazol-4-yl)amino) isonicotinic acid]	1 to 100 nM	1 to 100 nM
Cc1c(Nc2cnccc2C(=O)O)cnn1[C@H]1CC[C@@H](N)CC1 [Compound 79, 3-((1-((cis)-4-aminocyclohexyl)-5-methyl-1H-pyrazol-4-yl)amino)isonicotinic acid]	1 to 100 nM	1 to 100 nM
Cc1c(-c2ccccc2)nn(CCN2CCC(F)(F)CC2)c1Nc1cnccc1C(=O)O [Compound 66, 3-((1-(2-(4,4-difluoropiperidin-1-yl)ethyl)-4-methyl-3-phenyl-1H-pyrazol-5-yl)amino)isonicotinic acid]	10000 to 100000 nM	10000 to 100000 nM
N[C@H]1CC[C@@H](n2nc(-c3ccccc3)cc2Nc2cnccc2C(=O)O)CC1 [Compound 37, 3-((1-((cis)-4-aminocyclohexyl)-3-phenyl-1H-pyrazol-5-yl)amino)isonicotinic acid]	100 to 1000 nM	100 to 1000 nM
Cc1nn(C2CCN(C(C)C)CC2)cc1Nc1cnccc1C(=O)O [Compound 102, 3-((1-(1-isopropylpiperidin-4-yl)-3-methyl-1H-pyrazol-4-yl)amino)isonicotinic acid]	100 to 1000 nM	100 to 1000 nM
COC(=O)c1ccncc1Nc1cnn(C2CCN(C(C)C)CC2)c1C [Compound 103, methyl 3-((1-(1-isopropylpiperidin-4-yl)-5-methyl-1H-pyrazol-4-yl)amino)isonicotinate]	10000 to 100000 nM	10000 to 100000 nM
O=C(O)c1ccncc1Nc1cnn(CCN2CCC(F)(F)CC2)c1-c1ccccc1 [Compound 18, 3-((1-(2-(4,4-difluoropiperidin-1-yl)ethyl)-5-phenyl-1H-pyrazol-4-yl)amino)isonicotinic acid]	100 to 1000 nM	100 to 1000 nM
Cc1c(Nc2cnccc2C(=O)O)cnn1C1CCN(C(=O)c2ccccc2)CC1 [Compound 98, 3-(1-(1-benzoylpiperidin-4-yl)-5-methyl-1H-pyrazol-4-ylamino) isonicotinic acid]	100 to 1000 nM	100 to 1000 nM
O=C(O)c1ccncc1Nc1cc(-c2ccccc2)nn1[C@H]1CC[C@H](O)CC1 [Compound 39, 3-((1-((trans)-4-hydroxycyclohexyl)-3-phenyl-1H-pyrazol-5-yl)amino)isonicotinic acid]	1000 to 10000 nM	100 to 1000 nM
Cc1nn(C2CCCNCC2)cc1Nc1cnccc1C(=O)O (single isomer, unassigned) [Compound 116]	100 to 1000 nM	100 to 1000 nM
O=C(O)c1ccncc1Nc1nn(CCN2CCC(F)(F)CC2)cc1-c1ccccc1 [Compound 14, 3-((1-(2-(4,4-Difluoropiperidin-1-yl)ethyl)-4-phenyl-1H-pyrazol-3-yl)amino)isonicotinic acid]	100 to 1000 nM	100 to 1000 nM

Other lines, results leading:

IC50 (KDM4A)	IC50 (KDM4C)	SMILES
100 to 1000 nM	1000 to 10000 nM	Cc1nn(-c2ccccc2C#N)cc1Nc1cnccc1C(=O)O [Compound 70, 3-((1-(2-cyanophenyl)-3-methyl-1H-pyrazol-4-yl)amino) isonicotinic acid]
100 to 1000 nM	100 to 1000 nM	COc1ccccc1-n1cc(C)c(Nc2cnccc2C(=O)O)n1 [Compound 63, 3-((1-(2-methoxyphenyl)-4-methyl-1H-pyrazol-3-yl)amino) isonicotinic acid]
100 to 1000 nM	100 to 1000 nM	Cc1cc(Nc2cnccc2C(=O)O)nn1-c1ccccc1 [Compound 60, 3-((5-methyl-1-phenyl-1H-pyrazol-3-yl)amino)isonicotinic acid]
100 to 1000 nM	100 to 1000 nM	Cn1cc(-c2cccc(F)c2)c(Nc2cnccc2C(=O)O)n1 [Compound 9, 3-((4-(3-Fluorophenyl)-1-methyl-1H-pyrazol-3-yl)amino) isonicotinic acid]
100 to 1000 nM	100 to 1000 nM	O=C(O)c1ccncc1Nc1cc(-c2ccccc2)nn1-c1ccncc1 [Compound 56, 3-((3-phenyl-1-(pyridin-4-yl)-1H-pyrazol-5-yl)amino) isonicotinic acid]
1 to 100 nM	1 to 100 nM	Cc1c(Nc2cnccc2C(=O)O)cnn1-c1ccccc1 [Compound 20, 3-((5-methyl-1-phenyl-1H-pyrazol-4-yl)amino)isonicotinic acid]
100 to 1000 nM	100 to 1000 nM	Cc1cn(-c2ccccc2C#N)nc1Nc1cnccc1C(=O)O [Compound 71, 3-((1-(2-cyanophenyl)-4-methyl-1H-pyrazol-3-yl)amino) isonicotinic acid]
10000 to 100000 nM	10000 to 100000 nM	O=C(O)c1ccncc1Nc1c(-c2ccccc2)cnn1-c1ccccc1 [Compound 43, 3-((1,4-Diphenyl-1H-pyrazol-5-yl)amino)isonicotinic acid]
1 to 100 nM	1 to 100 nM	Cc1cn(-c2ccccc2)nc1Nc1cnccc1C(=O)O [Compound 62, 3-((4-methyl-1-phenyl-1H-pyrazol-3-yl)amino) isonicotinic acid]
